Structures can show the parent of a compound that is named as a salt.
Tests used:
[1] = Redox potential (eH) and pH measurements of cecal contents; type: in vivo, C57BL/6J mice; conditions: mice on standard chow diet
Procedure: Mouse assays. C57BL/6J mice following the habituation period were given one week to acclimate to the control 0-fiber diet with 20% (w/w) glucose. After this diet acclimation period, mice were randomized into new cages for each diet/antibiotic condition. Amoxicillin was administered via drinking water (25 mg/kg/day) ad libitum for the specified timepoints. All drinking water was filter-sterilized before administration. Fecal samples were collected at the specified timepoints and stored at −20° C. until nucleic acid extraction. Cecum contents were collected directly into bead-bashing tubes with DNA/RNA shield (Zymo Research, Irvine, CA, USA) and stored at −80° C. for nucleic acid extraction. […]
Redox potential and pH measurements. Redox potential was measured according to a modified protocol from Husson (2012); Husson et al. (2016) with an Ag/AgCl Reference electrode (Radiometer analytical E21M002, Radiometer Analytical Pt plate electrode 5×5 mm M241 Pt), and a voltmeter. […] The samples were blinded and measured in random order. […]
The platinum electrode was inserted into each sample. […] The same cecal extracts were used to measure pH using a PH meter and for subsequent validation with ATP assays, 16S rRNA sequencing and quantitative polymerase chain reaction (qPCR) bacterial load. […]

E. coli (MG1655) = test: NAD+/NADH reporter: E. coli reporter assay; type: cell-based, Escherichia coli
Procedure: NAD+/NADH reporter: E. coli reporter assay. The NAD+/NADH reporter plasmid (Liu et al., 2019) was transformed into E. coli (MG1655) for growth and fluorescence assays. Overnight cultures of E. coli were diluted 1:1000 in fresh Luria Broth. The diluted cultures were allowed to grow to 0.2 OD before treatment with amoxicillin and metformin. Fluorescence and growth (in OD) were measured in parallel using two plate readers. Data is shown with fluorescence normalized to growth and as separate growth and fluorescence curves.
This ratio is a stand in for cellular bioenergetics with a high ratio indicative of increased catabolism
The inventors then treated these bacteria with metformin and measured their growth and fluorescence. […] Dwyer et al. (2014). […] Stynen et al. (2018).

murine gut microbiome = test: Oats diet with amoxicillin challenge, 16S rRNA sequencing of fecal pellets (Example 11); type: in vivo, C57BL/6J mice; conditions: Day 5, across each diet group
Text: In Example 11, mice were fed LabDiet 5001 (LD01; LabDiet, St. Louis, MO, USA) feed pellets for a 2-week habituation period. For experimental diets, a custom base diet reflecting standard mouse chow fiber content was designed (Envigo-Teklad, Madison, WI, USA). The base diet modifies AlN-93G (TD.180901) by removing all cellulose and reducing cornstarch content while adjusting micro- and macronutrient contents so the diet could be an 80% base for 20% (wt/wt) supplementation with other carbon sources. Buffalo cornstarch (Ingredion Incorporated, IL, USA) was used to increase host accessibility and reduce cornstarch availability in the cecum and lower gastrointestinal tract. […]
In Example 11, total DNA and RNA was liberated from bacteria by bead-bashing fecal or cecum samples for 5 min on a Bead Ruptor 96 (Omni International, Kennesaw, GA). […] Nucleic acids were eluted in nuclease-free water and measured using the double-stranded DNA high sensitivity (dsDNA-HS) or RNA-HS kits on a Qubit 3.0 fluorometer (Thermo Fisher Scientific, Waltham, MA, USA).
In Example 11, the 16S rRNA gene V4 region was amplified from fecal total DNA using barcoded 515F forward and indexed 806R reverse primers as described by Parada, Needham, & Fuhrman, Environ. […] Amplicons were verified by gel electrophoresis, measured on the Qubit 3.0 and pooled in equimolar concentrations. […]

E. coli = test: Amoxicillin kill curve in E. coli; type: cell-based, Escherichia coli; conditions: aerobic, increasing concentrations of metformin
Procedure: Bacterial strains. Bacteroides thetaiotaomicron (VPI-5482) can be obtained from the American Type Culture Collection (ATCC; Manassas, VA, USA). Bacteroides theta was cultured in modified Gifu Anaerobic Media (mGAM, HyServe). Escherichia coli (MG1655) was cultured in Luria Broth (Fisher Scientific, Waltham, MA, USA). Anaerobic assays were cultured in a BactronEZ anaerobic chamber (Sheldon Manufacturing, Cornelius, OR, USA) under an atmosphere of 5% H2, […]. All bacteria were grown at 37° C.
Amoxicillin kill curves in E. coli and B. theta. Kill Curves for E. coli were done in an aerobic environment and for B. theta in the anaerobic chamber. Overnight cultures s were grown in Luria Broth (E. coli) or mGAM (B. theta). Overnight cultures were diluted 1:100 in fresh media. They were allowed to grow to 0.2 OD before treatment with amoxicillin and metformin. Samples were grown at 37° C. and plated every two hours for six hours in serial dilutions. Colony forming units (CFUs) were measured the following day.
The inventors then tested the survival of bacteria treated with metformin against amoxicillin. […] These assays were conducted aerobically in E. coli.

[2] = system: Bacteroides thetaiotaomicron; test: Amoxicillin kill curve in B. theta; type: cell-based; conditions: anaerobic
Procedure: Bacteroides theta was cultured in modified Gifu Anaerobic Media (mGAM, HyServe). […] Anaerobic assays were cultured in a BactronEZ anaerobic chamber (Sheldon Manufacturing, Cornelius, OR, USA) under an atmosphere of 5% H2, 5% N2, and 90% CO2. All bacteria were grown at 37° C.

[3] = Mass spectrometry for metformin measurement in serum, liver and cecum; type: in vivo, C57BL/6J mice; conditions: low-fiber glucose diet with 100 mg/kg metformin hydrochloride, five days, LC/MS
Procedure: (§1) Metformin in vivo supplementation. Metformin hydrochloride (Fisher Scientific, Waltham, MA, USA) was added to powdered mouse diet at 100 mg/kg (w/w) or 0.1% in the glucose diet and homogenized before administration to mice via feeding jars. In the chow diet metformin was added 50 mg/kg (w/w) or 0.05%.
Mass spectrometry for metformin measurement. Plasma, liver and cecal samples were collected for from the sacrificed mice in the two metformin supplementation assays (n=6 mice per group, twenty-four mice/assay). The liver was perfused with phosphate-buffered saline upon collection and the tissue was homogenized with reverse osmosis-purified water at 1 mg/10 μL using a Bead Ruptor at speed 30 for five minutes. Supernatants from the homogenate was collected after centrifugation at 2000×g for five minutes to pellet beads. Cecal contents were also homogenized with reverse osmosis-purified water at 1 mg/10 μL, and supernatants were used for analysis. Metformin extraction and mass spec protocol modified from Chaudhari et al. (2020). For metformin extraction, 30 μL of cecal/tissue homogenates or plasma were added to 70 μL of D6-metformin ([sequence]) at 250 μM concentration in methanol. […]
Metformin in biological samples after spiking with D6-metformin ([sequence]) and extraction was quantitated with HPLC-MS on an Ultimate 3000, Dionex coupled to Q Executive Classic (Thermo Fisher) with ESI interface. […]

gut microbiome = test: Metformin in vivo supplementation during antibiotic treatment, 16S rRNA sequencing of cecal contents; parameters: species or system C57BL/6J mice
Procedure: Mouse assays. C57BL/6J mice following the habituation period were given one week to acclimate to the control 0-fiber diet with 20% (w/w) glucose. After this diet acclimation period, mice were randomized into new cages for each diet/antibiotic condition. Amoxicillin was administered via drinking water (25 mg/kg/day) ad libitum for the specified timepoints. All drinking water was filter-sterilized before administration. Fecal samples were collected at the specified timepoints and stored at −20° C. until nucleic acid extraction. Cecum contents were collected directly into bead-bashing tubes with DNA/RNA shield (Zymo Research, Irvine, CA, USA) and stored at −80° C. for nucleic acid extraction. For the redox potential (eH) and pH measurements, total cecal contents were immediately flash frozen in liquid nitrogen and lyophilized and stored at −80° C. until measurements were taken.
16S rRNA amplicon preparation and sequencing. The 16S rRNA V4 hypervariable region was amplified from total DNA using the barcoded 515F forward primer and the 806R reverse primers from the Earth Microbiome Project (Thompson et al., 2017). Amplicons were generated using 5× Phusion High-Fidelity DNA Polymerase under these cycling conditions: (1) initial denaturation at 98 °C for thirty seconds, followed by (2) twenty-five cycles of 98 °C for ten seconds, 57 °C for thirty seconds, and 72° C. for thirty seconds, then (3) a final extension at 72 °C for five minutes. Gel electrophoresis was used to visualize amplicons and pooled in equimolar amounts. The pooled amplicon library was submitted to the Rhode Island Genomics and Sequencing Center at the University of Rhode Island (Kingston, RI, USA) for sequencing on the Illumina MiSeq platform. Amplicons were paired-end sequenced (2×250 bp) using the 600-cycle kit with standard protocols. Raw reads were deposited in the NCBI Sequence Read Archive (SRA).
16S sequencing analysis. Raw 16S rRNA reads were first demultiplexed with idemp. Quality filtering, trimming, de-noising with DADA2 (q2-dada2). […] Merging was done using the Qiime2 pipeline (version 2019.10). […] Ribosomal sequence variants were aligned with mafft (q2-alignment). […] Phylogenetic tree construction was done with fasttree2 (q2-phylogeny). […] Taxonomic assignment was conducted using the pre-trained Naive Bayes classifier and the q2-feature-classifier (Bokulich et al., 2018) trained on the SILVA 132 99% database. […] Alpha diversity (Shannon, Faith's phylogenetic diversity) and beta diversity (Bray-Curtis dissimilarity) were calculated using the phyloseq package (version 1.30.0) in R (version 3.6.2).
as §1
The inventors used metformin supplemented diets and supplemented the control low-fiber diet with 100 mg/kg of metformin hydrochloride (MPI Chemicals) during antibiotic treatment for five days.
The inventors then extracted DNA from the cecal contents of mice Day 1 and Day 5 following antibiotic treatment and used 16S rRNA sequencing to investigate changes in gut microbiome composition.

Structure (SMILES)	chemical redox of cecal contents [1]	NADH reporter fluorescence (NADH/NAD+ ratio) (E. coli (MG1655); E. coli, antibiotic treatment)	relative proportion of Bacteroidota and Verrucomicrobiota compared to controls (murine gut microbiome)	survival of bacteria challenged with amoxicillin (E. coli)	NADH reporter fluorescence (NADH/NAD+ ratio), effect on the antibiotic-induced increase (E. coli (MG1655); E. coli treated with amoxicillin and metformin)	protection from amoxicillin (kill curve) [2]	metformin levels in cecum, liver and serum [3]	Desulfobacterota and Cyanobacteria phyla abundance (gut microbiome; all metformin treatment groups, low-fiber glucose diet and laboratory chow)	antibiotic-induced decrease in diversity (Shannon) (gut microbiome; glucose diet with metformin, Day 1 and Day 5 of antibiotic treatment)	Proteobacteria at Day 5 of antibiotic treatment (gut microbiome; glucose diet, metformin plus antibiotic, Day 5)	bacterial diversity, metformin alone (gut microbiome; glucose diet, no antibiotics, Day 5)	initial spike in Proteobacteria during antibiotic treatment (gut microbiome; glucose low-fiber diet, Day 1)	reduction in microbial diversity during antibiotic treatment (gut microbiome; laboratory chow with metformin)
CC1(C)S[C@@H]2[C@H](NC(=O)[C@H](N)c3ccc(O)cc3)C(=O)N2[C@H]1C(=O)O [amoxicillin, Amoxicillin]	increased the chemical redox	significantly increased fluorescence	Bacteroidota receded and that of Verrucomicrobiota increased										
CN(C)C(=N)N=C(N)N [metformin, Metformin hydrochloride]				improved the survival of bacteria	suppressed this increase	significant protection from amoxicillin	significantly higher in the cecum compared to the liver and serum	complete depletion	smaller decrease in diversity	bloom in Proteobacteria in the Moraxellaceae family	significant changes in bacterial diversity	prevented the initial spike in Proteobacteria	smaller reduction in microbial diversity

— patent publication US20240180955A1, “FIBER SUPPLEMENTATION PROTECTS FROM ANTIBIOTIC-INDUCED GUT MICROBIOME DYSBIOSIS BY MODULATING REDOX METABOLISM” (Brown University, priority 2022, published 2024)
